{"source": "patent US20100048714A1", "about": "“Methods and Compositions Related to Inhibition of Ceramide Synthesis” (University of Utah Research Foundation, priority 2006, published 2010)", "key": {"[1]": {"tested_on": "Sprague-Dawley rats", "experiment": "Liver ceramide and ceramide-enzyme expression in dexamethasone-treated rats", "assay_type": "in vivo, rat", "conditions": "dexamethasone 40 μg/Kg IP every 12 hours for 36 hours; myriocin 300 μg/Kg IP for two weeks prior", "procedure": "(A) Sprague-Dawley rats were treated with myriocin (300 μg/Kg, IP, solid bars) or saline (open bars) for two weeks prior to giving administering dexamethasone (40 μg/Kg, IP) or vehicle (5% ethanol) every 12 hours for 36 hours. Animals were euthanized by CO2 inhalation, livers were removed, and ceramide levels were assessed as described in SOM-Methods. Shown are mean ceramide levels+/−S.E.M, n=6 per group. The asterisk denotes that the sample was statistically different from vehicle-treated controls, p<0.05, student's t-test. (B) Livers were obtained as in A, above, and protein and mRNA were extracted as described in SOM-Methods. Levels of transcripts (solid bars) encoding serine palimitoyl transferase isoforms 1 and 2 (SPT1 and SPT2), dihydroceramide synthases (DCS) TL1, UOG, and TRH3, glucosylceramide synthase (GCS), and acid ceramidase (AC) transcripts were obtained by reverse-transcriptase polymerase chain reaction, normalized to β-actin. SPT2 protein levels (white bars) were detected by immunoblotting with an antibody from Cayman Chemicals (Ann Arbor, Mich.) and quantified on a Kodak Image Station 2000R (Rochester, N.Y.). […] (E) The glucose infusion rate required to maintain normal glycemia during insulin infusion (4mU/kg/min) was calculated as the average infusion rate during the 60 minute steady state. […]"}, "[2]": {"tested_on": "Sprague-Dawley rats", "experiment": "Glucose tolerance test (glucose 1 g/kg IP) in dexamethasone-treated rats", "assay_type": "in vivo, rat", "procedure": "(§1) (A) Sprague-Dawley rats were treated with myriocin (300 μg/Kg, IP, solid bars) or saline (open bars) for two weeks prior to giving administering dexamethasone (40 μg/Kg, IP) or vehicle (5% ethanol) every 12 hours for 36 hours. Animals were euthanized by CO2 inhalation, livers were removed, and ceramide levels were assessed as described in SOM-Methods. Shown are mean ceramide levels+/−S.E.M, n=6 per group. The asterisk denotes that the sample was statistically different from vehicle-treated controls, p<0.05, student's t-test. (B) Livers were obtained as in A, above, and protein and mRNA were extracted as described in SOM-Methods. Levels of transcripts (solid bars) encoding serine palimitoyl transferase isoforms 1 and 2 (SPT1 and SPT2), dihydroceramide synthases (DCS) TL1, UOG, and TRH3, glucosylceramide synthase (GCS), and acid ceramidase (AC) transcripts were obtained by reverse-transcriptase polymerase chain reaction, normalized to β-actin. SPT2 protein levels (white bars) were detected by immunoblotting with an antibody from Cayman Chemicals (Ann Arbor, Mich.) and quantified on a Kodak Image Station 2000R (Rochester, N.Y.). Data represent the fold-change in transcript or protein in dexamethasone-treated animals relative to vehicle controls. […] (C and D) Rats were challenged with glucose (1 g/kg) given intraperitoneally (IP) following treatment with dexamethasone (squares), ethanol carrier (triangles), myriocin (open shapes), or saline (solid shapes) as in A, above. Tail vein blood (3 μl) was sampled for glucose (C)(using the Glucometer Elite from Bayer Corp., Tarrytown, N.Y.) or insulin (D) (using an Elisa kit from Linco Diagnostics, Springfield, Mo.). […] (E-G) Hyperinsulinemic euglycemic clamps were performed on animals (n=4 per group) treated as in A, above, as described in SOM-Methods. Data from animals receiving myriocin are depicted in solid bars. (E) The glucose infusion rate required to maintain normal glycemia during insulin infusion ([…]) was calculated as the average infusion rate during the 60 minute steady state. (F) Hepatic glucose output was estimated by the disappearance of [^14C] glucose from a bolus dose given during the steady state minus the glucose infusion rate. (G) Disappearance of a bolus dose of [^3H] 2-deoxyglucose from the bloodstream was used to estimate the rate of whole body glucose uptake.\nTail vein blood (3 μl) was sampled for glucose determination (Hitachi 911 clinical chemistry analyzer, Roche, Indianapolis, Ind. or Glucometer Elite, Bayer Corp., Tarrytown, N.Y.)-30 minutes, immediately before and 15, 30, 45, 60, 90, and 120 min after glucose administration. Additionally, serum was collected and analyzed for insulin by Elisa (Linco Diagnostics, Springfield, Mo.)."}, "[3]": {"tested_on": "male Sprague Dawley Rats", "experiment": "Insulin tolerance test in dexamethasone-treated rats", "assay_type": "in vivo, rat", "conditions": "dexamethasone 400 μg/kg IP 24 and 12 hours prior; myriocin 0.3 mg/kg/2 days for 1 week", "procedure": "Following an overnight fast, insulin was injected (20 U, IP) and whole blood glucose was determined by glucometer. Values are presented as the ratio of measured blood glucose to fasting blood glucose.\n(§2) To definitively evaluate effects on insulin sensitivity, as well as to distinguish whether the treatment protocols differentially affected glucose uptake in skeletal muscle or hepatic output by the liver, hyperinsulinemic-euglycemic clamps with D-[U-^14C] glucose and 2-deoxy-D-[2,6-^3H] glucose tracers were performed."}, "[4]": {"tested_on": "Sprague dawley rats", "experiment": "Hyperinsulinemic euglycemic clamps of dexamethasone treated rats", "assay_type": "in vivo, rat", "conditions": "for Insulin, During Clamp / FFA / Glucose, Before Clamp / Insulin, Before Clamp: plasma, mean ± standard error, n=4; for Insulin, During Clamp: steady state; for FFA: Before Clamp by layout", "procedure": "as §1, §2\nClamps were performed in conscious unrestrained animals using swivels and tethers (Instech, Plymouth Meeting, Pa.) to allow uninterrupted movement of the animal without disruption of infusion lines. Hyperinsulinemia was initiated by intravenous infusion of insulin (10 mU/kg/min at a flow rate of 4 μL/min). Blood was sampled from arterial lines in 7 minute intervals and analyzed with a Beckman Glucose analyzer II (Beckman Coulter, Fullerton, Calif.). Euglycemia was maintained by variable infusion of 20% dextrose. Steady state was achieved approximately 90 minutes after initiating hyperinsulinemia and maintained for 30 minutes. Glucose infusion rates were calculated as the average glucose infusion rate during the 30 minute steady state. Additional blood samples were taken before initiating hyperinsulinemia and at the end of the clamp for analysis of insulin and free fatty acids."}, "[5]": {"tested_on": "Zucker Diabetic Fatty (ZDF) rats", "experiment": "Myriocin treatment of Zucker Diabetic Fatty rats", "assay_type": "in vivo, rat"}, "[6]": {"tested_on": "Zucker fa/fa rat", "experiment": "Myriocin in non-diabetic insulin resistance model, Zucker fa/fa rat", "assay_type": "in vivo"}, "[7]": {"tested_on": "DIO mice", "experiment": "Myriocin in non-diabetic insulin resistance model, DIO mice", "assay_type": "in vivo"}, "[8]": {"tested_on": "Sprague dawley rats", "experiment": "Hyperinsulinemic euglycemic clamps of dexamethasone treated rats", "assay_type": "in vivo, rat", "conditions": "plasma, 60 minute steady state, mean ± standard error, n=4"}, "[9]": {"conditions": "dexamethasone with or without myriocin pretreatment"}, "[10]": {"conditions": "glucose challenge 1 g/kg IP, n=6 per group, p<0.05"}, "[11]": {"conditions": "clamp, dexamethasone with or without myriocin pretreatment"}, "[12]": {"conditions": "Dexamethasone-treated (Saline or Myriocin)"}, "[13]": {"conditions": "treatment starting at week 8, vs vehicle"}}, "data": [{"smiles": "CCCCCCC(=O)CCCCCC/C=C/C[C@@H](O)[C@H](O)[C@@](N)(CO)C(=O)O", "note": "[Myriocin]", "values": [{"measurement": "ceramide levels in the liver", "setting": "[1]", "result": "Reducing ceramide levels"}, {"measurement": "glucose disposal / glucose intolerance in glucose tolerance test", "setting": "[2]; [9]", "result": "significantly negated glucocorticoid-induced glucose intolerance"}, {"measurement": "insulin levels during glucose tolerance test", "setting": "[2]; [9]", "result": "normalized circulating insulin concentrations"}, {"measurement": "area under the curve, glucose", "setting": "[2]; [10]", "result": "significantly lowered the area under the curve"}, {"measurement": "area under the curve, insulin", "setting": "[2]; [10]", "result": "significantly lowered the area under the curve"}, {"measurement": "insulin sensitivity in insulin tolerance tests", "setting": "[3]", "result": "fully negated"}, {"measurement": "2-deoxyglucose uptake into skeletal muscle / insulin resistance in skeletal muscle", "setting": "[4]; [11]", "result": "partially blocked"}, {"measurement": "insulin-induced suppression of hepatic glucose output", "setting": "[4]; [11]", "result": "completely prevented"}, {"measurement": "insulin-responsiveness (glucose infusion rate, hepatic glucose output, whole body glucose uptake; FIG. 1E-G)", "setting": "[4]; clamp, n=4 per group, p<0.05", "result": "significantly restored insulin-responsiveness"}, {"measurement": "Insulin, During Clamp", "setting": "[4]; [12]", "result": "5.4 ± 1.4", "unit": "ng/mL"}, {"measurement": "Insulin, During Clamp", "setting": "[4]; Dexamethasone: Control", "result": "6.4 ± 0.5", "unit": "ng/mL"}, {"measurement": "FFA", "setting": "[4]; [12]", "result": "176 ± 34", "unit": "µM"}, {"measurement": "FFA", "setting": "[4]; Dexamethasone: Control", "result": "258 ± 29", "unit": "µM"}, {"measurement": "Glucose, Before Clamp", "setting": "[4]; [12]", "result": "137.0 ± 2.1", "unit": "mg/dL"}, {"measurement": "Insulin, Before Clamp", "setting": "[4]; [12]", "result": "2.34 ± 0.49", "unit": "ng/mL"}, {"measurement": "Glucose, Before Clamp", "setting": "[4]; Dexamethasone: Control", "result": "123.6 ± 7.7", "unit": "mg/dL"}, {"measurement": "Insulin, Before Clamp", "setting": "[4]; Dexamethasone: Control", "result": "2.05 ± 0.25", "unit": "ng/mL"}, {"measurement": "age until which the improvement in blood glucose persisted", "setting": "[5]; ZDF rats", "result": "at least 16 weeks"}, {"measurement": "ceramides in liver, soleus and serum", "setting": "[5]; ZDF rats", "result": "reduced levels of the sphingolipid in all these tissues"}, {"measurement": "tolerability", "setting": "[5]; ZDF rats and lean controls, myriocin for up to 6 weeks", "result": "well-tolerated"}, {"measurement": "glucose homeostasis", "setting": "[5]; male ZDF rats, myriocin 0.3 mg/kg IP every other day (FIG. 4 legend)", "result": "markedly improved glucose homeostasis"}, {"measurement": "side effects", "setting": "[5]; rat, in vivo", "result": "no apparent side effects"}, {"measurement": "onset of diabetes", "setting": "[5]; treatment starting at week 8", "result": "prevented the onset of diabetes"}, {"measurement": "plasma glucose levels", "setting": "[5]; [13]", "result": "reduced"}, {"measurement": "triglyceride levels", "setting": "[5]; [13]", "result": "reduced"}, {"measurement": "glucose homeostasis", "setting": "[6]", "result": "improved glucose homeostasis"}, {"measurement": "insulin levels", "setting": "[6]", "result": "lowered insulin levels"}, {"measurement": "glucose homeostasis", "setting": "[7]", "result": "improved glucose homeostasis"}, {"measurement": "insulin levels", "setting": "[7]", "result": "lowered insulin levels"}, {"measurement": "Glucose, During Clamp", "setting": "[8]; [12]", "result": "129.3 ± 3.7", "unit": "mg/dL"}, {"measurement": "Glucose, During Clamp", "setting": "[8]; Dexamethasone: Control", "result": "130.5 ± 2.9", "unit": "mg/dL"}]}]}
